Assay [1] addresses T1, Matrix metalloproteinase 9 (MMP-9) (Homo sapiens, UniProt P14780).
T1 construct: purchased Calbiochem 444231
The assay is described as follows: Enzyme inhibition experiment, MMP-9. As to conditions: 444221 substrate, 37° C., 4 hours. The assay is classed as biochemical. The protocol:
(§1) The enzyme reaction was carried out using the enzymes and substrates. Specifically, if necessary, the enzyme was activated in advance with APMA (final concentration 1 mmol/L, p-aminophenylmercuric acetate, manufactured by Sigma-Aldrich Co., A9563) according to information from the manufacturer. Then, in a 96-well plate for fluorescence measurement, 90 μL of an enzyme solution prepared with Assay Buffer A (50 mmol/L Tris-HCl buffer (pH 7.5) containing 200 mmol/L sodium chloride, 5 mmol/L calcium chloride, 10 μmol/L zinc sulfate, and 2 mg/mL bovine serum albumin) was mixed with 90 μL of the substrate adjusted to be 20 μmol/L with Assay Buffer B (50 mmol/L Tris-HCl buffer (pH 7.5) containing 200 mmol/L sodium chloride, 5 mmol/L calcium chloride, 10 μmol/L zinc sulfate, and 0.05% PLURONIC F-68), and incubated for reaction at 25° C. or 37° C. for several hours. Moreover, the fluorescence intensities before and after the reaction were measured using a fluorometer to determine the enzyme activity.

Assay [2] has as its target T2, Matrix metalloproteinase 14 (MMP-14) (Homo sapiens, UniProt P50281).
T2 construct: purchased Calbiochem 475935
The assay can be described thus: Enzyme inhibition experiment, MMP-14. The assay is classed as biochemical. As to conditions: 444221 substrate, 37° C., 5 hours. How it is done: Matrix metalloproteinase 14 (MMP-14) (manufactured by Calbiochem, product number: 475935)
444221 substrate (DNP-Pro-Cha-Gly-Cys(Me)-His-Ala-Lys(Nma)-NH2, custom synthesis): excitation wavelength at 355 nm, emission wavelength at 460 nm
as §1, with “activity. An inhibition rate was obtained based on the enzyme activities in the presence and absence of the test substances, and the 50% inhibitory concentration (IC50) was calculated.” for “activity.”

In assay [3] the target is T3, Matrix metalloproteinase 3 (MMP-3) (Homo sapiens, UniProt P08254).
T3 construct: purchased Calbiochem 444217
T3 sequence (P08254 100-272 limits assumed): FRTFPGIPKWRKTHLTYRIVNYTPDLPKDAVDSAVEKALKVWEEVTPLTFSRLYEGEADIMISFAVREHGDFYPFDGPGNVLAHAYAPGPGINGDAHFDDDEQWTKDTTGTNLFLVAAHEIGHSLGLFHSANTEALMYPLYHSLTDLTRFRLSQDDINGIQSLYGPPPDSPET
The assay is described as follows: Enzyme inhibition experiment, MMP-3. The format is biochemical. As to conditions: 3168 substrate, 37° C., 4 hours. The protocol: Matrix metalloproteinase 3 (MMP-3) (manufactured by Calbiochem, product number: 444217)
3168 substrate (MOCAc-Arg-Pro-Lys-Pro-Val-Glu-Nva-Trp-Arg-Lys(Dnp)-NH2, manufactured by Peptide Institute, Inc.): excitation wavelength at 320 nm, emission wavelength at 405 nm, and 3163 substrate (MOCAc-Pro-Leu-Gly-Leu-A2pr(Dnp)-Ala-Arg-NH2, manufactured by Peptide Institute, Inc.): excitation wavelength at 320 nm, emission wavelength at 405 nm.
as §1, with “activity. An inhibition rate was obtained based on the enzyme activities in the presence and absence of the test substances, and the 50% inhibitory concentration (IC50) was calculated.” for “activity.”

The target in assay [4] is T4, ADAM17 (Homo sapiens, UniProt P78536).
T4 construct: made in house; host or cells: mammalian cells or insect cells
T4 sequence (P78536 215-824): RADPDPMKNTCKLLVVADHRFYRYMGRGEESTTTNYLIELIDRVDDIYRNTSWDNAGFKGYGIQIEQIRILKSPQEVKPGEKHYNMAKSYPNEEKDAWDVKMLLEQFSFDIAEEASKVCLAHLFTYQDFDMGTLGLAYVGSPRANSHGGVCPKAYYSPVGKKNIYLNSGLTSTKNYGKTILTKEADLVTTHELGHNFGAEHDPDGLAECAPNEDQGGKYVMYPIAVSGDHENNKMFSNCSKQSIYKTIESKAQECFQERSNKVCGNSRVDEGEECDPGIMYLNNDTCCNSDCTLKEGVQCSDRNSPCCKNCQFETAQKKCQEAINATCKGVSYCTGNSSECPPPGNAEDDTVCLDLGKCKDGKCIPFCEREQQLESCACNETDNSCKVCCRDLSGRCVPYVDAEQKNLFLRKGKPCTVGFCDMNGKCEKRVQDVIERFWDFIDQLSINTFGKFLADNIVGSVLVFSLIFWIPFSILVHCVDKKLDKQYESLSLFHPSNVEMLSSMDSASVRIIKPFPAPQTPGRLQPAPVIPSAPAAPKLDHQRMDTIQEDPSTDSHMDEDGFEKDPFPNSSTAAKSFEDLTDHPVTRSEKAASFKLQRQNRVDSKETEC
The assay can be described thus: ADAM17 inhibition experiment (fluorescent synthetic substrate). The assay is classed as biochemical. As to conditions: from Table 3. The protocol:
The cDNA was incorporated into an expression vector. Then, this vector was transfected into mammalian cells or insect cells, and ADAM17 was expressed and obtained.
Next, the activity of ADAM17 was measured, as follows in the presence or absence of the test substances, in which obtained ADAM17 was used as an enzyme, and a fluorescent synthetic substrate Nma (N-methyl anthranilate)-[…]Dnp (dinitrophenyl)-D-Arg-NH2 containing an ADAM17-cleavage sequence of membrane-bound TNF was used as a substrate.
Specifically, 90 μL of 14 units of an enzyme solution (1 unit is defined as an amount of enzyme degrading […] of the substrate in 1 minute at 25° C.) prepared with Assay Buffer A (50 mmol/L Tris-HCl buffer (pH 7.5) containing 200 mmol/L sodium chloride, 5 mmol/L calcium chloride, 10 μmol/L zinc sulfate, and 2 mg/mL bovine serum albumin) was mixed with 90 μL of the fluorescent synthetic substrate adjusted to be 20 μmol/L with Assay Buffer B (50 mmol/L Tris-HCl buffer (pH 7.5) containing 200 mmol/L sodium chloride, 5 mmol/L calcium chloride, 10 μmol/L zinc sulfate, and 0.05% PLURONIC F-68), and allowed for reaction at 37° C. for 1.5 hours. Thereafter, the enzyme activity was determined by measurement using a fluorometer (Fluoroskan Ascent) under conditions of an excitation wavelength of 355 nm and a measurement wavelength of 460 nm. Then, an inhibition rate was obtained based on the enzyme activities in the presence and absence of the test compounds, and the 50% inhibitory concentration (IC50) was calculated.
A disintegrin and metalloproteinase 17 (ADAM17, TACE) (used was one prepared at Kaken Pharmaceutical Co., Ltd. by employing the genetic recombination in the same way as in Test Example 3. Note that, the same as in Test Example 3, 1 unit is defined as an amount of enzyme degrading 1 pmol of substrate in 1 minute at 25° C.)
TACE substrate (the same as one used in Test Example 3): excitation wavelength at 355 nm, emission wavelength at 460 nm
as §1, with “activity. An inhibition rate was obtained based on the enzyme activities in the presence and absence of the test substances, and the 50% inhibitory concentration (IC50) was calculated.” for “activity.”

Assay [5] concerns the target T5, TACE expressed on the macrophage-like cells (THP-1) (Homo sapiens, UniProt P78536).
T5 construct: host or cells: THP-1 cells differentiated with PMA into macrophage-like cells
The assay can be described thus: Cellular TACE inhibition experiment (LPS-induced TNF-α production in PMA-differentiated THP-1 cells). The assay is classed as cell-based. The settings on record: for IC50: THP-1 macrophage-like cells, LPS 1 μg/mL, 6 hours, read-out: IC50 TNFα production. The protocol: After the differentiation, the medium was discarded, and the cells were washed with THP-1 washing buffer (RPMI 1640, 20 mM HEPES-NaOH (pH 7.4)). After the washing of the cells, a THP-1 assay buffer (RPMI 1640, 20 mmol/L HEPES-NaOH (pH 7.4), 0.01 w/v % PF-68, 10 v/v % FBS) was added thereto at 100 μL/well. Then, a THP-1 assay buffer containing the test substance (I-1 or 1-4) was further added at 50 μL/well and mixed by tapping. After incubation in a CO2 incubator for 30 to 45 minutes, a THP-1 assay buffer containing LPS was added at 50 μL/well (the final concentration of LPS was 1 μg/mL). Further, the plate was tapped for mixing, followed by incubation in the CO2 incubator for 6 hours. After the incubation was finished, human TNF-α concentration in the culture supernatant was measured with a commercially available kit (Human TNF-α CytoSet (manufactured by BIOSOURCE) or Human TNF-α Ready-Set-Go! (manufactured by eBioscience, Inc.)).

T5 sequence (P78536 215-824): as above
T1 sequence (P14780 94-707): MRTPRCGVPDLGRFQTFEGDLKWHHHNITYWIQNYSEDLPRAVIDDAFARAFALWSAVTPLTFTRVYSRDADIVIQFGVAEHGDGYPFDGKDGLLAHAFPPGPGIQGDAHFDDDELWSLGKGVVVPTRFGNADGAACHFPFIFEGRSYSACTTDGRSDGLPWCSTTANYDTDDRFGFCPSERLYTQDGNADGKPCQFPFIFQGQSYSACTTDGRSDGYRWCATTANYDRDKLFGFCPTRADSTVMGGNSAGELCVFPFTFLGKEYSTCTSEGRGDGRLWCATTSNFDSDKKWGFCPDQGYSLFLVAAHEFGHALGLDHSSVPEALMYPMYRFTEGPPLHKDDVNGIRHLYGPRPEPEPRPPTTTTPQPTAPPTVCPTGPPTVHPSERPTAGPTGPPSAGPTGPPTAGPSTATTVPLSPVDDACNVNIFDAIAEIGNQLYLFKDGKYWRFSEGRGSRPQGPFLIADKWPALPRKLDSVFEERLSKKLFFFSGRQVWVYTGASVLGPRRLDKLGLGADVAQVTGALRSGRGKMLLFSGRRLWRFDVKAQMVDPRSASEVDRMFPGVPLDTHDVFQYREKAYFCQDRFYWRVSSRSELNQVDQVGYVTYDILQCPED

For `CC#CCOc1ccc(S(=O)(=O)CC(c2ccc(CN(CC)CC)cc2)N(O)C=O)cc1` (stereo not drawn) [Compound I-1, N-[2-(4-But-2-ynyloxybenzenesulfonyl)-1-(4-diethylaminomethylphenyl)ethyl]-N-hydroxyformamide], the IC50 in assay [1] was determined as 11 µM; in assay [2], 1 µM; in assay [3], 8.3 µM; in assay [5], 1.2 µM. The “specificity to ADAM17 in comparison with metalloproteinases other than ADAM17” value in assay [4] is recorded as “high specificity to ADAM17”. Further, in assay [5], the “inhibitory activity on TACE expressed on the macrophage-like cells (in words)” value is “inhibitory activity was confirmed”.
On to `CC#CCOc1ccc(S(=O)(=O)CC(c2ccc(CNS(C)(=O)=O)cc2)N(O)C=O)cc1` (stereo not drawn) [Compound I-4, N-{4-[2-(4-But-2-ynyloxybenzenesulfonyl)-1-(formylhydroxyamino)ethyl]benzyl}methanesulfonamide], for which the IC50 was determined as 11 µM in assay [1], 1.4 µM in assay [2], 6.5 µM in assay [3] and 0.625 µM in assay [5]. In addition, in assay [4], the “specificity to ADAM17 in comparison with metalloproteinases other than ADAM17” value was “high specificity to ADAM17”. In addition, the “inhibitory activity on TACE expressed on the macrophage-like cells (in words)” value in assay [5] is on record as “inhibitory activity was confirmed”.
